Key:
[1] = test system: other 13 kinases; experiment: Endogenous kinases in intact HEK293 cells, western blot; assay type: cell-based; conditions: 3 days
From the text: The results are presented as means±s.d. (n=4). […] Representative data from the duplicate experiments are shown.

[2] = target: T1, EPHA8 (Homo sapiens, UniProt P29322); experiment: Kinase panel (Carna); assay type: biochemical
T1 construct: purchased Carna Biosciences
From the text: (§1) Detailed information on the assay conditions is available on the website of Carna Biosciences (http://www.carnabio.com).

[3] = target: T2, EPHB1 (Homo sapiens, UniProt P54762); experiment: Kinase panel (Carna); assay type: biochemical
T2 construct: purchased Carna Biosciences
From the text: as §1

[4] = target: T3, EPHB3 (Homo sapiens, UniProt P54753); experiment: Kinase panel (Carna); assay type: biochemical
T3 construct: purchased Carna Biosciences
From the text: as §1

[5] = target: T4, EPHB4 (Homo sapiens, UniProt P54760); experiment: Kinase panel (Carna); assay type: biochemical
T4 construct: purchased Carna Biosciences
From the text: as §1

[6] = target: T5, LYNb (Homo sapiens, UniProt P07948); experiment: Kinase panel (Carna); assay type: biochemical
T5 construct: purchased Carna Biosciences
From the text: as §1

[7] = target: T6, FGFR1 (Homo sapiens, UniProt P11362); experiment: Kinase panel (Carna); assay type: biochemical
T6 construct: purchased Carna Biosciences
T6 sequence (P11362 22-822): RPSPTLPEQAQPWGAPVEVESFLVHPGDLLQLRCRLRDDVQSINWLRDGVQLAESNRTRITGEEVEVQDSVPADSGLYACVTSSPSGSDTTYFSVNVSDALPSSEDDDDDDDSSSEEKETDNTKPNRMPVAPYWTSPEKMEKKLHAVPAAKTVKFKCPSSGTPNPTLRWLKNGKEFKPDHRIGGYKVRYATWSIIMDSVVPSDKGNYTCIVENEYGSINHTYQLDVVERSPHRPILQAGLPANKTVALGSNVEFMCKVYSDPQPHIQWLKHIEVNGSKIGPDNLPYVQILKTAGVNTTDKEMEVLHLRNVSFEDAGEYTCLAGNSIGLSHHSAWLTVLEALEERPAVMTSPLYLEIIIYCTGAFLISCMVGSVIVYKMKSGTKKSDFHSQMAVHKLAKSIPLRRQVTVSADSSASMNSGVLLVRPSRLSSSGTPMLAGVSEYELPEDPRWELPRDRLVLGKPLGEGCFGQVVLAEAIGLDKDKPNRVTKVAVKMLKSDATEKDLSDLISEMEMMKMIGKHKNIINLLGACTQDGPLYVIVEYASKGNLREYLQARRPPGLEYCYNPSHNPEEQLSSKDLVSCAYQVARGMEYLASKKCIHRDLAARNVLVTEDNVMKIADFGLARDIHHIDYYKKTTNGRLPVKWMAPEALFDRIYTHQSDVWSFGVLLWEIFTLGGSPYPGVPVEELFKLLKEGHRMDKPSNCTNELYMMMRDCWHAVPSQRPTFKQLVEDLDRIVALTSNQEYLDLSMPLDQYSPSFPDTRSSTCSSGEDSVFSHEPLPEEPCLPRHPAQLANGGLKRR

[8] = target: T7, FGFR2 (Homo sapiens, UniProt P21802); experiment: Kinase panel (Carna); assay type: biochemical
T7 construct: purchased Carna Biosciences
T7 sequence (P21802 22-821): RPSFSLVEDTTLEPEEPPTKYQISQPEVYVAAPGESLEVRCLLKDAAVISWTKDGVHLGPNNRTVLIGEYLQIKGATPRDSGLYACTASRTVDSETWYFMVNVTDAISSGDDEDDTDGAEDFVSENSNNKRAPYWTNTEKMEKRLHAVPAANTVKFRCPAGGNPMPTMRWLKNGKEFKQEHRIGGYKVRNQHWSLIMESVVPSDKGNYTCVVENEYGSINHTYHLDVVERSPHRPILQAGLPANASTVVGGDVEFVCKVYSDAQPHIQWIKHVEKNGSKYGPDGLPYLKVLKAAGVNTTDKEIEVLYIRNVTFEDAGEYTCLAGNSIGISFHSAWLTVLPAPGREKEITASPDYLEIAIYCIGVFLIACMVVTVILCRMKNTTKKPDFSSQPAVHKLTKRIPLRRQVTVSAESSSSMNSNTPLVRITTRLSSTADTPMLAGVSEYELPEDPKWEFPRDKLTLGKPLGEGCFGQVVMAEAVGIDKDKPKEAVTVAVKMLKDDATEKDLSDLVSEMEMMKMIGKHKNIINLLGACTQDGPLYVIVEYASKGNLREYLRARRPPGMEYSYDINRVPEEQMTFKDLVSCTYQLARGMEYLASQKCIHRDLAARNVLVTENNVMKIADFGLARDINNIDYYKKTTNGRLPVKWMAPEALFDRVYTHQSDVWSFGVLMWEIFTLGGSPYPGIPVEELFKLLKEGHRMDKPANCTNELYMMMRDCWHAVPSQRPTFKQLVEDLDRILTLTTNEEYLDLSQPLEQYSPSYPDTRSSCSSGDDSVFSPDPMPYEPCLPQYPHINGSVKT

[9] = target: T8, FLT3 (Homo sapiens, UniProt P36888); experiment: Kinase panel (Carna); assay type: biochemical
T8 construct: purchased Carna Biosciences
From the text: as §1

[10] = target: T9, FMS (Homo sapiens, UniProt P07333); experiment: Kinase panel (Carna); assay type: biochemical
T9 construct: purchased Carna Biosciences
From the text: as §1

[11] = target: T10, IRR (Homo sapiens, UniProt P14616); experiment: Kinase panel (Carna); assay type: biochemical
T10 construct: purchased Carna Biosciences
From the text: as §1

[12] = target: T11, ROS (Homo sapiens, UniProt P08922); experiment: Kinase panel (Carna); assay type: biochemical
T11 construct: purchased Carna Biosciences
From the text: as §1

[13] = target: T12, TXK (Homo sapiens, UniProt P42681); experiment: Kinase panel (Carna); assay type: biochemical
T12 construct: purchased Carna Biosciences
T12 sequence (P42681 whole entry): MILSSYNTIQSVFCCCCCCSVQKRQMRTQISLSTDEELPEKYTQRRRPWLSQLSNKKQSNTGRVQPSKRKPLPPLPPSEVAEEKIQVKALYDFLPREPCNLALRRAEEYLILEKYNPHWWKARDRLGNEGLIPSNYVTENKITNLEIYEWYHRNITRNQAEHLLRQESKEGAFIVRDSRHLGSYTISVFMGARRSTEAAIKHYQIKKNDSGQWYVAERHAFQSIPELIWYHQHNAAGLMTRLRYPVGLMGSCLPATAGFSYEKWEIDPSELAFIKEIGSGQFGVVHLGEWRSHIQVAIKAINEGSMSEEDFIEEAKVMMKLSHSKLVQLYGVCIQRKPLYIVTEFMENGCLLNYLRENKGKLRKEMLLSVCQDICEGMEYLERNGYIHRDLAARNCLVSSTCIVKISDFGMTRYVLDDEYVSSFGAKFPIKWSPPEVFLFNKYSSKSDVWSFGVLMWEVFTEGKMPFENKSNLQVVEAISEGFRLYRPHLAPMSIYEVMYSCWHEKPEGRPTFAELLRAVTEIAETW
From the text: as §1

[14] = target: T13, YES (Homo sapiens, UniProt P07947); experiment: Kinase panel (Carna); assay type: biochemical
T13 construct: purchased Carna Biosciences
From the text: as §1

[15] = target: T14, ZAP70 (Homo sapiens, UniProt P43403); experiment: Kinase panel (Carna); assay type: biochemical
T14 construct: purchased Carna Biosciences
From the text: as §1

[16] = target: T15, DCAMKL2 (Homo sapiens, UniProt Q8N568); experiment: Kinase panel (Carna); assay type: biochemical
T15 construct: purchased Carna Biosciences
From the text: as §1

[17] = target: T16, CaMK2α (Homo sapiens, UniProt Q9UQM7); experiment: Kinase panel (Carna); assay type: biochemical
T16 construct: purchased Carna Biosciences
From the text: as §1

[18] = target: T17, CDC7/ASK (Homo sapiens, UniProt O00311); experiment: Kinase panel (Carna); assay type: biochemical
T17 construct: purchased Carna Biosciences
From the text: as §1

[19] = target: T18, CDK7/CycH/MAT1 (Homo sapiens, UniProt P50613); experiment: Kinase panel (Carna); assay type: biochemical
T18 construct: purchased Carna Biosciences
From the text: as §1

[20] = target: T19, CK1α (Homo sapiens, UniProt P48729); experiment: Kinase panel (Carna); assay type: biochemical
T19 construct: purchased Carna Biosciences

[21] = target: T20, LATS2 (Homo sapiens, UniProt Q9NRM7); experiment: Kinase panel (Carna); assay type: biochemical
T20 construct: purchased Carna Biosciences

[22] = target: T21, MAP3K2_Cascade (Homo sapiens, UniProt Q9Y2U5); experiment: Kinase panel (Carna); assay type: biochemical
T21 construct: purchased Carna Biosciences
From the text: as §1

[23] = target: T22, MNK1 (Homo sapiens, UniProt Q9BUB5); experiment: Kinase panel (Carna); assay type: biochemical
T22 construct: purchased Carna Biosciences
T22 sequence (Q9BUB5 whole entry): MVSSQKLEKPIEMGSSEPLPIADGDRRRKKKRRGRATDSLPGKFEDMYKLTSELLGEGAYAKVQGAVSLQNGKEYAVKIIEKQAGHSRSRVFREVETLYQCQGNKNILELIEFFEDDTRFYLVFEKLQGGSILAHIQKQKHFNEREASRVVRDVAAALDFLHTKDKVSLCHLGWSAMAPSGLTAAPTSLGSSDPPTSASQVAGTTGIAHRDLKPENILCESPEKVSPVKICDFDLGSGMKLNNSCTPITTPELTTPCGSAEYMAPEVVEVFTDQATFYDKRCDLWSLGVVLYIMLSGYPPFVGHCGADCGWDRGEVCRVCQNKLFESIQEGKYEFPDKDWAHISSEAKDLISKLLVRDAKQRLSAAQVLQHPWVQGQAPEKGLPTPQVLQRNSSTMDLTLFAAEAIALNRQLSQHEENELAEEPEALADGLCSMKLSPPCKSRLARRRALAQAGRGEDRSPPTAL

[24] = target: T23, MSK2 (Homo sapiens, UniProt O75676); experiment: Kinase panel (Carna); assay type: biochemical
T23 construct: purchased Carna Biosciences
From the text: as §1

[25] = target: T24, MSSK1 (Homo sapiens, UniProt Q9UPE1); experiment: Kinase panel (Carna); assay type: biochemical
T24 construct: purchased Carna Biosciences
From the text: as §1

[26] = target: T25, p38β (Homo sapiens, UniProt Q15759); experiment: Kinase panel (Carna); assay type: biochemical
T25 construct: purchased Carna Biosciences
From the text: as §1

[27] = target: T26, p70S6K (Homo sapiens, UniProt P23443); experiment: Kinase panel (Carna); assay type: biochemical
T26 construct: purchased Carna Biosciences
From the text: as §1

[28] = target: T27, PAK6 (Homo sapiens, UniProt Q9NQU5); experiment: Kinase panel (Carna); assay type: biochemical
T27 construct: purchased Carna Biosciences
From the text: as §1

[29] = target: T28, PIM1 (Homo sapiens, UniProt P11309); experiment: Kinase panel (Carna); assay type: biochemical; conditions: 10 µM FINDY
T28 construct: purchased Carna Biosciences
From the text: as §1

[30] = target: T29, PIM2 (Homo sapiens, UniProt Q9P1W9); experiment: Kinase panel (Carna); assay type: biochemical
T29 construct: purchased Carna Biosciences
From the text: as §1

[31] = target: T30, PKACγ (Homo sapiens, UniProt P22612); experiment: Kinase panel (Carna); assay type: biochemical
T30 construct: purchased Carna Biosciences
T30 sequence (P22612 whole entry): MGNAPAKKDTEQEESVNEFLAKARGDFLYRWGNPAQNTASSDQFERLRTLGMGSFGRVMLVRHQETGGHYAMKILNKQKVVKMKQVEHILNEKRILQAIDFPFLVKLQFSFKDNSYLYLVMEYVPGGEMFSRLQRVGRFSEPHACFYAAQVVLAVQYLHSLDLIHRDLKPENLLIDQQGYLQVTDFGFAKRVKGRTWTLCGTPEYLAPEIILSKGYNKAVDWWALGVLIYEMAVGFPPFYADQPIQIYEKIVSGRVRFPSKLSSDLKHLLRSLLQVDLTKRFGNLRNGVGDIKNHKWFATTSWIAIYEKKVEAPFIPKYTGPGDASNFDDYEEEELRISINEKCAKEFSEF

[32] = target: T31, PKCα (Homo sapiens, UniProt P17252); experiment: Kinase panel (Carna); assay type: biochemical
T31 construct: purchased Carna Biosciences

[33] = target: T32, PKCβ1 (Homo sapiens, UniProt P05771); experiment: Kinase panel (Carna); assay type: biochemical
T32 construct: purchased Carna Biosciences
T32 sequence (P05771 whole entry): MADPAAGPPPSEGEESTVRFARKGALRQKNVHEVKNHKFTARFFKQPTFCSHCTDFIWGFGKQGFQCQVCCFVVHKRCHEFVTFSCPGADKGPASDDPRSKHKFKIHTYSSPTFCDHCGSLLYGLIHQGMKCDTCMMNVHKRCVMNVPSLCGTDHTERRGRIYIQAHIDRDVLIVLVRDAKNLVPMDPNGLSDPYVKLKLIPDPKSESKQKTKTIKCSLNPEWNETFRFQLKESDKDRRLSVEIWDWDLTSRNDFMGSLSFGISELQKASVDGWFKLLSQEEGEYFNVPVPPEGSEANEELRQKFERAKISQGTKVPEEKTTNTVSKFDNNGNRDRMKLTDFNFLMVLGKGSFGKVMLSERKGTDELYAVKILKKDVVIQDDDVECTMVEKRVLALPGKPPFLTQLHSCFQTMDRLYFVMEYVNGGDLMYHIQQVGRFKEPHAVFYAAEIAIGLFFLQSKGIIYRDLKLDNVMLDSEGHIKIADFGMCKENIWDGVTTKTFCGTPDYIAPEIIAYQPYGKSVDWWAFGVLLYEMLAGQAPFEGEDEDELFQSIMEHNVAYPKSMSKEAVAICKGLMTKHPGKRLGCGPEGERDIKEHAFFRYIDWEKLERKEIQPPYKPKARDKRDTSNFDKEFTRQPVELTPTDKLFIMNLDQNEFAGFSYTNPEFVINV
From the text: as §1

[34] = target: T33, PKCβ2 (Homo sapiens, UniProt P05771); experiment: Kinase panel (Carna); assay type: biochemical
T33 construct: purchased Carna Biosciences
T33 sequence (P05771 1-673 isoform P05771-2): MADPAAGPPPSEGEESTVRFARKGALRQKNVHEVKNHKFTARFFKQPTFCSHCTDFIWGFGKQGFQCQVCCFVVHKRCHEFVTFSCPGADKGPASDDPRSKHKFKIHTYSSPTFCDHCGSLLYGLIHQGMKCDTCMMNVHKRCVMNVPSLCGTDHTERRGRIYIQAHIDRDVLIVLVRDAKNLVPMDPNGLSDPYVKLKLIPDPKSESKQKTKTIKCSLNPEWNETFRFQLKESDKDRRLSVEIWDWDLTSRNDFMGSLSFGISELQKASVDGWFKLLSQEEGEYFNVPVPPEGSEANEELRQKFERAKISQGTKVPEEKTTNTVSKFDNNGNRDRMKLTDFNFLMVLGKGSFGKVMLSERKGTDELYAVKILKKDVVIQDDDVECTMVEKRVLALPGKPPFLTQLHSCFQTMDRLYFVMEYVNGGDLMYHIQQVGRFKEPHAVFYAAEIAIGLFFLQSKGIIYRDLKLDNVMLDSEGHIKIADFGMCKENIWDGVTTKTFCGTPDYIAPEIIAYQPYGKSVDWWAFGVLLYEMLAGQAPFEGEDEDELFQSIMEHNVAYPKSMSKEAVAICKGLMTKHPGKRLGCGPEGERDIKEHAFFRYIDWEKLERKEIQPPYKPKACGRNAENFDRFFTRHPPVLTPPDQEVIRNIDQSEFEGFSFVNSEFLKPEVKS
From the text: as §1

[35] = target: T34, PKCε (Homo sapiens, UniProt Q02156); experiment: Kinase panel (Carna); assay type: biochemical
T34 construct: purchased Carna Biosciences
T34 sequence (Q02156 whole entry): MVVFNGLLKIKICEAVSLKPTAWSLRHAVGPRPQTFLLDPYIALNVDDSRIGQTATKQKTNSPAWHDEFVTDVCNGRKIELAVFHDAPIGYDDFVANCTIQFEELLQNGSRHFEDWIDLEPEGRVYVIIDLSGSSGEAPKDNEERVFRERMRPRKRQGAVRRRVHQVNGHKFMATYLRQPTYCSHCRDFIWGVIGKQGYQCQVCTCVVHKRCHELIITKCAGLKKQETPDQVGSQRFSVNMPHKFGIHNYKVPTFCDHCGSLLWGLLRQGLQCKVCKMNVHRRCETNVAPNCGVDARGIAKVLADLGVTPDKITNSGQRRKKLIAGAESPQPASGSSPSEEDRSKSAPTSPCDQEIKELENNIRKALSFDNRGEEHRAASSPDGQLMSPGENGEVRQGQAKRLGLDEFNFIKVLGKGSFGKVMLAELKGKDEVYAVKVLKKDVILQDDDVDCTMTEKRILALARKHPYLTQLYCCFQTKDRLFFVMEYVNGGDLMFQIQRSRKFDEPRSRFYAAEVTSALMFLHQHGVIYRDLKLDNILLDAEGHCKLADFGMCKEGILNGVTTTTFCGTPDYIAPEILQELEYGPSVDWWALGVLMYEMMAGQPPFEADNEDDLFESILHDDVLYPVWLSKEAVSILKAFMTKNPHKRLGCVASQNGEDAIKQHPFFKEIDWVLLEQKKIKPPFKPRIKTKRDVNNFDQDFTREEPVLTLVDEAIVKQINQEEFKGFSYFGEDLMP
From the text: as §1

[36] = target: T35, WNK1 (Homo sapiens, UniProt Q9H4A3); experiment: Kinase panel (Carna); assay type: biochemical
T35 construct: purchased Carna Biosciences
From the text: as §1

[37] = target: T36, PLK1 (Homo sapiens, UniProt P53350); experiment: Kinase panel (Carna); assay type: biochemical
T36 construct: purchased Carna Biosciences

[38] = target: T37, RSK1 (Homo sapiens, UniProt Q15418); experiment: Kinase panel (Carna); assay type: biochemical
T37 construct: purchased Carna Biosciences

[39] = target: T38, RSK3 (Homo sapiens, UniProt Q15349); experiment: Kinase panel (Carna); assay type: biochemical
T38 construct: purchased Carna Biosciences

[40] = target: T39, SGK (Homo sapiens, UniProt O00141); experiment: Kinase panel (Carna); assay type: biochemical
T39 construct: purchased Carna Biosciences

[41] = target: T40, SRPK2 (Homo sapiens, UniProt P78362); experiment: Kinase panel (Carna); assay type: biochemical
T40 construct: purchased Carna Biosciences
From the text: as §1

[42] = target: T41, TAK1-TAB1_Cascade (Homo sapiens, UniProt O43318); experiment: Kinase panel (Carna); assay type: biochemical
T41 construct: purchased Carna Biosciences
From the text: as §1

[43] = target: T42, TAOK2 (Homo sapiens, UniProt Q9UL54); experiment: Kinase panel (Carna); assay type: biochemical
T42 construct: purchased Carna Biosciences
From the text: as §1

[44] = target: T43, WNK2 (Homo sapiens, UniProt Q9Y3S1); experiment: Kinase panel (Carna); assay type: biochemical
T43 construct: purchased Carna Biosciences
From the text: as §1

`COc1ccc(/C=C2\SC(=S)NC2=O)cc1C#C[Si](C)(C)C` [FINDY] was tested, and the “endogenous expression of the other 13 kinases” value [1] was “no alteration”, the inhibition at 10 µM [2] was 48.8% and the inhibition at 10 µM [3] was 13.9%. It also gave an inhibition at 10 µM [4] of 22.2%, an inhibition at 10 µM [5] of 20.5% and an inhibition at 10 µM [6] of 11.4%. For the same compound, the inhibition at 10 µM [7] was 37%, the inhibition at 10 µM [8] was 19.7% and the inhibition at 10 µM [9] was 16%. The inhibition at 10 µM [10] was 6.8%, the inhibition at 10 µM [11] was 3% and the inhibition at 10 µM [12] was 0.3%. The inhibition at 10 µM [13] was 23.7%, the inhibition at 10 µM [14] was 6.4% and the inhibition at 10 µM [15] was 12.9%. For the same compound, the inhibition at 10 µM [16] was -3.8%, the inhibition at 10 µM [17] was -6.9% and the inhibition at 10 µM [18] was 14.1%. It also gave an inhibition at 10 µM [19] of 15.2%, an inhibition at 10 µM [20] of 6.1% and an inhibition at 10 µM [21] of 1.2%. The inhibition at 10 µM [22] was 55.8%, the inhibition at 10 µM [23] was 6.2% and the inhibition at 10 µM [24] was 20.8%. It also gave an inhibition at 10 µM [25] of 6.6%, an inhibition at 10 µM [26] of 11.2% and an inhibition at 10 µM [27] of 7.4%. It also gave an inhibition at 10 µM [28] of -145%, an inhibition at 10 µM [29] of 76.8% and an inhibition at 10 µM [30] of 67.4%. It also gave an inhibition at 10 µM [31] of 17.8%, an inhibition at 10 µM [32] of 0.6% and an inhibition at 10 µM [33] of 3.5%. It also gave an inhibition at 10 µM [34] of -2.3%, an inhibition at 10 µM [35] of -6.6% and an inhibition at 10 µM [36] of 12.6%. The inhibition at 10 µM [37] was 23.7%, the inhibition at 10 µM [38] was 39.8% and the inhibition at 10 µM [39] was 28%. The inhibition at 10 µM [40] was 27.8%, the inhibition at 10 µM [41] was -5% and the inhibition at 10 µM [42] was 52.7%. The inhibition at 10 µM [43] was -1.2% and the inhibition at 10 µM [44] was 12.3%.
